These results are taken from patent US20050050594A1, “Tryptophan synthase as a site of herbicide action” (priority 1999, published 2005).

As a reminder, the pIC50 is the IC50 on a negative log10 scale, so that one unit is a factor of ten.

pIC50: −log10 of the molar value.

For test [1], the system named is a variety of dicotyledonous and monocotyledonous plants. The test is described as follows: Postemergence greenhouse herbicidal test. In kind it is in vivo. To be noted: Postemergence application. The protocol: The herbicidal activity of the compounds was tested as described in the U.S. Pat. No. 5,635,449. […] In the tests, seedling plants are grown in jiffy flats for about two weeks. The test compounds are dispersed in 50/50 acetone/water mixtures containing 0.5% TWEEN®20, a polyoxyethylene sorbitan monolaurate surfactant of Atlas Chemical Industries, in sufficient quantities to provide the equivalent of about 1.0 kg to 8.0 kg per hectare of test compound when applied to the plants through a spray nozzle operating at 40 psi for a predetermined time. After spraying, the plants are placed on greenhouse benches and are cared for in the usual manner, commensurate with conventional greenhouse practices. From four to five weeks after treatment, the seedling plants are examined and rate according to the rating system set forth below.

Test [2] has as its system mustard, hemp sesbania, soybean, lambsquarters, pigweed, bindweed, morningglory, corn, green foxtail, velvetleaf. The test is described as follows: Early injury symptoms and species effects on postemergence treated plants. To be noted: post emergence, 4 or 8 kg/ha; for Symptoms 6 DAT: 6 days after application. The class given is in vivo. From the text:
Herbicidal compounds of the invention were examined for their herbicidal effects by observing symptoms on postemergence treated plants.
Early injury symptoms caused by the TS-inhibiting herbicides of the invention are represented in Table 13. Symptoms and species effects are represented through the herbicidal activity {4-[(o-hydroxyphenyl)thio]butyl}-phosphonic acid, applied at 4 or 8 kg/ha.

Test [3] addresses T1, Salmonella typhimurium tryptophan synthase holoenzyme (α2β2), TSα reaction (Salmonella typhimurium, UniProt P00929).
T1 construct: made in house; host or cells: E. coli strain CB149pSTB7
As to the kind of experiment: Inhibition of tryptophan synthase by the TSα reaction, microtiter kinetic coupled enzyme assay. In kind it is biochemical. The method, boiled down: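 S. typhimurium α2β2 holoenzyme (~1.5 e.u.) in 50 mM Tris-Cl pH 7.8 with 60 mM serine, started with 100 μM IGP (1.5-2× Km), 37° C. Glyceraldehyde-3-P formation coupled to yeast GAPDH/1.6 mM NAD+, read at 340 nm. Inhibitor at 100 μM or 1:1 dilutions; some preincubated 24 h before IGP.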

T1 sequence (P00929 whole entry): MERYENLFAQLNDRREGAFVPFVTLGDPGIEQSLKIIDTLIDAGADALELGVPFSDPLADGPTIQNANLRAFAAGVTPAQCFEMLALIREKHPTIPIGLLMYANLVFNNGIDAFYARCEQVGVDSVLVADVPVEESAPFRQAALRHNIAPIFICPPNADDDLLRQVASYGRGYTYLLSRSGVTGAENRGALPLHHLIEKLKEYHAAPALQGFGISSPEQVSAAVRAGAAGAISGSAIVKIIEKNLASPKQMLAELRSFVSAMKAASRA
T1 sequence (P0A2K1 2-397, further chain): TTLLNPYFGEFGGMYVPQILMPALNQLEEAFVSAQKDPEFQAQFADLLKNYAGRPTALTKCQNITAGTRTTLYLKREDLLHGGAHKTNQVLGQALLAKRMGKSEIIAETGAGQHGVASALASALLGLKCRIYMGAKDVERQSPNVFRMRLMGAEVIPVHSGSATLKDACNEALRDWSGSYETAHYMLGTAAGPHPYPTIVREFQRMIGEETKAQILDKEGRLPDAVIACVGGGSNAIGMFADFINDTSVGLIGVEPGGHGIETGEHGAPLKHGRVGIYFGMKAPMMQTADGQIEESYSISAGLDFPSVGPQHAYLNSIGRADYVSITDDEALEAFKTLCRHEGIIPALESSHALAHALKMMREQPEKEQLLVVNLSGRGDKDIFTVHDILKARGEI

`O=P(O)(O)CCCCSc1ccccc1O` [Compound 22, {4-[(o-hydroxyphenyl)thio]butyl}-phosphonic acid]: the “Herbicidal Activity” value in test [1] is recorded as “+++ (+++ = 80-100% injury to two species)”. In test [2] (height reduction), the “Symptoms 6 DAT” value is “height reduction: lambs quarter,”. For the same compound, the “Symptoms 6 DAT” value in test [2] (increased branching) is “increased branching: soybean”. In addition, the “Symptoms 6 DAT” value in test [2] (leaf mottling) is “leaf mottling: mustard, soybean,”. For the same compound, the “Symptoms 6 DAT” value in test [2] (leaf yellowing) is on record as “leaf yellowing: mustard, hemp”. Further, the “Symptoms 6 DAT” value in test [2] (shoot tip yellowing) is recorded as “shoot tip yellowing: hemp sesbania”. Also, the “Symptoms 6 DAT” value in test [2] (tip necrosis) is “tip necrosis: hemp sesbania”. Moreover, in test [2] (13 days after application), the “Species effects, 13 DAT: bindweed” value was “bindweed: mottling, some necrosis,”; the “Species effects, 13 DAT: corn” value is recorded as “corn: unaffected”; the “Species effects, 13 DAT: green foxtail” value is on record as “green foxtail: stunted, yellowing, red”; the “Species effects, 13 DAT: hemp sesbania” value was “hemp sesbania: no growth between 6”. Also, in test [2] (13 days after application), the “Species effects, 13 DAT: lambsquarters height reduction” value is “lambsquarters: 40% height reduction,”; the “Species effects, 13 DAT: pigweed height reduction” value is “pigweed: 25% height reduction”; the “Species effects, 13 DAT: soybean” value is “soybean: shoot nearly dead except”; the “Species effects, 13 DAT: velvetleaf height reduction” value is reported as “velvetleaf: 50% height reduction”. This compound gave a pIC50 in test [3] (I50 TS, TSα reaction of Salmonella holoenzyme) of 6.89. The same compound showed a negative logarithm of the IC50 (pIC50) in test [3] (TSα activity (Salmonella enzyme) I50) of 6.89.
